Data from US20250261636A1, “QUATERNARY AMMONIUM SANITIZING COMPOSITION” (ECOLAB USA INC., priority 2020, published 2025).
Where “and” joins values, the source holds several entries; their conditions need not be identical. Identical values can stand only once.

Tests used:
[1] = tested on: Escherichia coli ATCC 11229; assay: AOAC Method 960.09 Germicidal and Detergent Sanitizing Action of Disinfectants, food contact sanitizing suspension test; assay type: cell-based
Procedure: (§1) The microbial efficacy of the multipurpose sanitizing composition was evaluated for food contact applications. The purpose of the testing is to determine the efficacy of compositions used for sanitizing food contact surfaces, which in the evaluations were pre-cleaned, non-porous surfaces using AOAC Method 960.09 Germicidal and Detergent Sanitizing Action of Disinfectants. […] The test organisms included Staphylococcus aureus ATCC 6538 and Escherichia coli ATCC 11229.
(§2) The pH was adjusted by use of a polycarboxylic acid (unless otherwise noted, such as the polycarboxylate citrate tested at pH 8). In this screening test pH 9, 8, 7, 5, 4, and 3 were tested. “NT” indicates a condition was “Not Tested.”

[2] = tested on: Staphylococcus aureus ATCC 6538; assay: as above; assay type: cell-based; conditions: for Average Log Reduction / CFU - Dilution 1E−01 / CFU - Dilution 1E−02 / CFU/mL / Log / Log Reduction: 50 ppm; for Average Log Reduction / CFU - Dilution 1E−01 / CFU - Dilution 1E−02 / CFU/mL / Log: Example 4; for Log Reduction: Example 4, per replicate
Procedure: as §1, §2

[3] = 50 ppm, pH 4, 77° F., Example 4
[4] = 50 ppm, pH 5, 77° F., Example 4
[5] = 50 ppm, pH 6, 77° F., Example 4
[6] = 50 ppm, pH 7, 77° F., Example 3
[7] = 50 ppm, pH 7 as printed (second sample of Table 15), 77° F.
[8] = 50 ppm, pH 7.5-8 (no pH adjustment), 77° F., Example 4
[9] = pH 7.5-8 (no pH adjustment), 77° F.
[10] = 30 ppm, pH 5, 120° F., listed as Stepan Quat

With “didecyl dimethyl ammonium carbonate/bicarbonate [CarboQuat]” the “log reduction E. coli (ATCC 11229)” value ([1]; 20 ppm, pH 5, 120° F.) was 5.08 log, the “log reduction E. coli (ATCC 11229)” value ([1]; 30 ppm, pH 3, 120° F.) was 6.25 log and the “log reduction E. coli (ATCC 11229)” value ([1]; 30 ppm, pH 4, 120° F.) was 6.88 log. For the same substance, the “Average Log Reduction” value ([1]; 30 ppm, pH 5, 104° F.) was 5.61 log, the “CFU - Dilution 1E−01” value ([1]; 30 ppm, pH 5, 104° F.) was 14 CFU and 28 CFU and the “CFU - Dilution 1E−02” value ([1]; 30 ppm, pH 5, 104° F.) was 3 CFU and 6 CFU. For the same substance, the “Log Reduction” value ([1]; 30 ppm, pH 5, 104° F., per replicate) was 5.76 log and 5.46 log, the “log reduction E. coli (ATCC 11229)” value ([1]; 30 ppm, pH 5, citric acid, 120° F.) was 6.67 log and the “log reduction E. coli (ATCC 11229)” value ([1]; 30 ppm, pH 5, formic acid, 120° F.) was 6.67 log. The “Average Log Reduction” value ([1]; 30 ppm, pH 7, 104° F.) was 3.47 log, the “CFU - Dilution 1E−01” value ([1]; 30 ppm, pH 7, 104° F.) was “TNTC” and the “CFU - Dilution 1E−02” value ([1]; 30 ppm, pH 7, 104° F.) was “TNTC”. The CFU/mL ([1]; 30 ppm, pH 7, 104° F.) was 3.00E+04 CFU/mL, the Log ([1]; 30 ppm, pH 7, 104° F.) was 4.48 and the “Log Reduction” value ([1]; 30 ppm, pH 7, 104° F., per replicate) was 3.47 log. For the same substance, the “Average Log Reduction” value ([1]; 30 ppm, pH 7, 120° F.) was 6.68 log, the “CFU - Dilution 1E−01” value ([1]; 30 ppm, pH 7, 120° F.) was 0 CFU and the “CFU - Dilution 1E−02” value ([1]; 30 ppm, pH 7, 120° F.) was 0 CFU. For the same substance, the CFU/mL ([1]; 30 ppm, pH 7, 120° F.) was 1E+01 CFU/mL, the Log ([1]; 30 ppm, pH 7, 120° F.) was 1.00 and the “Log Reduction” value ([1]; 30 ppm, pH 7, 120° F., per replicate) was 6.68 log. For the same substance, the “Average Log Reduction” value ([1]; 30 ppm, pH 8, 120° F.) was 3.21 log, the “CFU - Dilution 1E−01” value ([1]; 30 ppm, pH 8, 120° F.) was “TNTC” and the “CFU - Dilution 1E−02” value ([1]; 30 ppm, pH 8, 120° F.) was “TNTC”. The CFU/mL ([1]; 30 ppm, pH 8, 120° F.) was 3.00E+04 CFU/mL, the Log ([1]; 30 ppm, pH 8, 120° F.) was 4.48 and the “Log Reduction” value ([1]; 30 ppm, pH 8, 120° F., per replicate) was 3.21 log. The “log reduction E. coli (ATCC 11229)” value ([1]; 30 ppm, pH 8, citrate, 120° F.) was 3.20 log, the “Average Log Reduction” value ([1]; 40 ppm, pH 8, 120° F.) was 5.70 log and the “Log Reduction” value ([1]; 40 ppm, pH 8, 120° F., per replicate) was 5.28 log and 6.12 log. For the same substance, the “Average Log Reduction” value [1, 3] was 5.22 log, the “CFU - Dilution 1E−01” value [1, 3] was 44 CFU and the “CFU - Dilution 1E−02” value [1, 3] was 7 CFU and 4 CFU. The CFU/mL [1, 3] was 4.6E+02 CFU/mL and 4.4E+02 CFU/mL, the Log [1, 3] was 2.67 and 2.64 and the “Log Reduction” value ([1]; 50 ppm, pH 4, 77° F., Example 4, per replicate) was 5.21 log and 5.23 log. For the same substance, the “log reduction E. coli (ATCC 11229)” value ([1]; 50 ppm, pH 5, 77° F., Example 3) was 6.70 log, the “Average Log Reduction” value [1, 4] was 6.87 log and the “CFU - Dilution 1E−01” value [1, 4] was 0 CFU. For the same substance, the “CFU - Dilution 1E−02” value [1, 4] was 0 CFU, the CFU/mL [1, 4] was 1.0E+01 CFU/mL and the Log [1, 4] was 1.00. The “Log Reduction” value ([1]; 50 ppm, pH 5, 77° F., Example 4, per replicate) was 6.87 log, the “log reduction E. coli (ATCC 11229)” value ([1]; 50 ppm, pH 5, 104° F.) was 6.95 log and the “Average Log Reduction” value [1, 5] was 4.07 log. For the same substance, the “CFU - Dilution 1E−01” value [1, 5] was “TNTC”, the “CFU - Dilution 1E−02” value [1, 5] was 84 CFU and 48 CFU and the CFU/mL [1, 5] was 8.4E+03 CFU/mL and 4.8E+03 CFU/mL. For the same substance, the Log [1, 5] was 3.92 and 3.68, the “Log Reduction” value ([1]; 50 ppm, pH 6, 77° F., Example 4, per replicate) was 3.95 log and 4.19 log and the “Average Log Reduction” value [1, 6] was 3.35 log. For the same substance, the “CFU - Dilution 1E−01” value [1, 6] was “TNTC”, the “CFU - Dilution 1E−02” value [1, 6] was “TNTC” and the CFU/mL [1, 6] was 3.00E+04 CFU/mL. For the same substance, the Log [1, 6] was 4.48, the “Log Reduction” value ([1]; 50 ppm, pH 7, 77° F., Example 3, per replicate) was 3.35 log and the “log reduction E. coli (ATCC 11229)” value ([1]; 50 ppm, pH 7, 104° F.) was 6.71 log. For the same substance, the “Average Log Reduction” value [1, 7] was 6.70 log, the “CFU - Dilution 1E−01” value [1, 7] was 2 CFU and 1 CFU and the “CFU - Dilution 1E−02” value [1, 7] was 0 CFU. The CFU/mL [1, 7] was 2E+01 CFU/mL and 1E+01 CFU/mL, the Log [1, 7] was 1.26 and 1.00 and the “Log Reduction” value ([1]; 50 ppm, pH 7 as printed (second sample of Table 15), 77° F., per replicate) was 6.57 log and 6.83 log. The “Average Log Reduction” value [1, 8] was 3.40 log, the “CFU - Dilution 1E−01” value [1, 8] was “TNTC” and the “CFU - Dilution 1E−02” value [1, 8] was “TNTC”. For the same substance, the CFU/mL [1, 8] was 3.0E+04 CFU/mL, the Log [1, 8] was 4.48 and the “Log Reduction” value ([1]; 50 ppm, pH 7.5-8 (no pH adjustment), 77° F., Example 4, per replicate) was 3.40 log. For the same substance, the “log reduction E. coli (ATCC 11229)” value ([1]; 50 ppm, pH 9, 77° F., Example 3) was 3.35 log, the “log reduction E. coli (ATCC 11229)” value ([1]; 50 ppm, pH 9, 104° F.) was 5.33 log and the “log reduction E. coli (ATCC 11229)” value ([1]; 75 ppm, pH 5, 77° F., Example 3) was 6.83 log. For the same substance, the “log reduction E. coli (ATCC 11229)” value ([1]; 75 ppm, pH 5, 104° F.) was 6.95 log, the “log reduction E. coli (ATCC 11229)” value ([1]; 75 ppm, pH 7, 77° F., Example 3) was 6.83 log and the “log reduction E. coli (ATCC 11229)” value ([1]; 75 ppm, pH 7, 104° F.) was 6.95 log. For the same substance, the “log reduction E. coli (ATCC 11229)” value ([1]; 75 ppm, pH 9, 77° F., Example 3) was 6.50 log, the “log reduction E. coli (ATCC 11229)” value ([1]; 75 ppm, pH 9, 104° F.) was 6.95 log and the “log reduction E. coli (ATCC 11229)” value ([1]; 100 ppm, pH 5, 77° F., Example 3) was 6.83 log. The “log reduction E. coli (ATCC 11229)” value ([1]; 100 ppm, pH 9, 77° F., Example 3) was 6.83 log, the “log reduction S. aureus (ATCC 6538)” value ([2]; 20 ppm, pH 5, 120° F.) was 6.88 log and the “log reduction S. aureus (ATCC 6538)” value ([2]; 30 ppm, pH 5, 120° F.) was 6.69 log and 6.88 log. For the same substance, the “log reduction S. aureus (ATCC 6538)” value ([2]; 30 ppm, pH 8, 120° F.) was 6.69 log, the “log reduction S. aureus (ATCC 6538)” value ([2]; 40 ppm, pH 8, 120° F.) was 6.69 log and the “Average Log Reduction” value ([2]; pH 4, 77° F.) was 6.89 log. The “CFU - Dilution 1E−01” value ([2]; pH 4, 77° F.) was 0 CFU, the “CFU - Dilution 1E−02” value ([2]; pH 4, 77° F.) was 0 CFU and the CFU/mL ([2]; pH 4, 77° F.) was 1.0E+01 CFU/mL. The Log ([2]; pH 4, 77° F.) was 1.00, the “Log Reduction” value ([2]; pH 4, 77° F.) was 6.89 log and the “Average Log Reduction” value ([2]; pH 5, 77° F.) was 6.89 log. The “CFU - Dilution 1E−01” value ([2]; pH 5, 77° F.) was 0 CFU, the “CFU - Dilution 1E−02” value ([2]; pH 5, 77° F.) was 0 CFU and the CFU/mL ([2]; pH 5, 77° F.) was 1.0E+01 CFU/mL. The Log ([2]; pH 5, 77° F.) was 1.00, the “Log Reduction” value ([2]; pH 5, 77° F.) was 6.89 log and the “Average Log Reduction” value ([2]; pH 6, 77° F.) was 6.89 log. The “CFU - Dilution 1E−01” value ([2]; pH 6, 77° F.) was 0 CFU, the CFU/mL ([2]; pH 6, 77° F.) was 1.0E+01 CFU/mL and the Log ([2]; pH 6, 77° F.) was 1.00. The “Log Reduction” value ([2]; pH 6, 77° F.) was 6.89 log, the “Average Log Reduction” value [2, 9] was 6.89 log and the “CFU - Dilution 1E−01” value [2, 9] was 0 CFU. For the same substance, the “CFU - Dilution 1E−02” value [2, 9] was 0 CFU, the CFU/mL [2, 9] was 1.0E+01 CFU/mL and the Log [2, 9] was 1.00. The “Log Reduction” value [2, 9] was 6.89 log.
With “didecyl dimethyl ammonium methyl sulfonate/sulfate [Quat]” the “Average Log Reduction” value ([1]; 30 ppm, pH 5, 120° F.) was 4.93 log, the “Log Reduction” value ([1]; 30 ppm, pH 5, 120° F., per replicate, listed as Stepan Quat) was 4.85 log and 5.02 log and the “CFU - Dilution 1E−01” value [1, 10] was 63 CFU and 46 CFU. For the same substance, the CFU/mL [1, 10] was 6.8E+02 CFU/mL and 4.6E+02 CFU/mL, the Log [1, 10] was 2.83 and 2.67 and the “log reduction S. aureus (ATCC 6538)” value ([2]; 30 ppm, pH 5, 120° F.) was 6.69 log.
